Values belong to the compound of their own block, whether it stands above or below them. The source made the active and inactive calls. The rule behind the calls is not given here.
Key:
[1] = Toxicity in BALB/c mouse infected with Trypanosomal Trypanosoma cruzi MHOM/Pe/2011/Arequipa(DTU V) assessed as effect on […] level at 20 mg/kg, po administered for 5 days starting at 100 days post infection and measured after 2 days post treatment; format: organism-based; conditions: in vivo, 120 h, time 5 day
[2] = Toxicity in BALB/c mouse infected with Trypanosomal Trypanosoma cruzi MHOM/Pe/2011/Arequipa(DTU V) assessed as effect on CK-MB level at 20 mg/kg, po administered for 5 days starting at 9 days post infection and measured after 2 days post treatment; format: organism-based; conditions: in vivo, 120 h, time 5 day
[3] = Toxicity in BALB/c mouse infected with Trypanosomal Trypanosoma cruzi MHOM/Pe/2011/Arequipa(DTU V) assessed as effect on total bilirubin level at 20 mg/kg, po administered for 5 days starting at 100 days post infection and measured after 2 days post treatment; format: organism-based; conditions: in vivo, 120 h, time 5 day
[4] = Toxicity in BALB/c mouse infected with Trypanosomal Trypanosoma cruzi MHOM/Pe/2011/Arequipa(DTU V) assessed as effect on AST/GOT level at 20 mg/kg, po administered for 5 days starting at 9 days post infection and measured after 2 days post treatment; format: organism-based; conditions: in vivo, 120 h, time 5 day
Vero = experiment: Cytotoxicity against African green monkey Vero cells assessed as reduction in cell viability after 48 hrs by resazurin dye based assay; conditions: Chlorocebus sabaeus
[5] = Toxicity in BALB/c mouse infected with Trypanosomal Trypanosoma cruzi MHOM/Pe/2011/Arequipa(DTU V) assessed as reduction in survival at 20 mg/kg, po administered for 5 days starting at 100 days post infection and measured up to 145 days post infection; format: organism-based; conditions: in vivo, 120 h, time 5 day
[6] = Toxicity in BALB/c mouse infected with Trypanosomal Trypanosoma cruzi MHOM/Pe/2011/Arequipa(DTU V) assessed as effect on urea level at 20 mg/kg, po administered for 5 days starting at 9 days post infection and measured after 2 days post treatment; format: organism-based; conditions: in vivo, 120 h, time 5 day
[7] = Toxicity in BALB/c mouse infected with Trypanosomal Trypanosoma cruzi MHOM/Pe/2011/Arequipa(DTU V) assessed as effect on LDH level at 20 mg/kg, po administered for 5 days starting at 9 days post infection and measured after 2 days post treatment; format: organism-based; conditions: in vivo, 120 h, time 5 day
[8] = Toxicity in BALB/c mouse infected with Trypanosomal Trypanosoma cruzi MHOM/Pe/2011/Arequipa(DTU V) assessed as effect on LDH level at 20 mg/kg, po administered for 5 days starting at 100 days post infection and measured after 2 days post treatment; format: organism-based; conditions: in vivo, 120 h, time 5 day
[9] = Toxicity in BALB/c mouse infected with Trypanosomal Trypanosoma cruzi MHOM/Pe/2011/Arequipa(DTU V) assessed as effect on urea level at 20 mg/kg, po administered for 5 days starting at 100 days post infection and measured after 2 days post treatment; format: organism-based; conditions: in vivo, 120 h, time 5 day
[10] = Toxicity in BALB/c mouse infected with Trypanosomal Trypanosoma cruzi MHOM/Pe/2011/Arequipa(DTU V) assessed as effect on ALT/GPT level at 20 mg/kg, po administered for 5 days starting at 9 days post infection and measured after 2 days post treatment; format: organism-based; conditions: in vivo, 120 h, time 5 day
[11] = Toxicity in BALB/c mouse infected with Trypanosomal Trypanosoma cruzi MHOM/Pe/2011/Arequipa(DTU V) assessed as effect on uric acid level at 20 mg/kg, po administered for 5 days starting at 9 days post infection and measured after 2 days post treatment; format: organism-based; conditions: in vivo, 120 h, time 5 day
[12] = Toxicity in BALB/c mouse infected with Trypanosomal Trypanosoma cruzi MHOM/Pe/2011/Arequipa(DTU V) assessed as effect on ALT/GPT level at 20 mg/kg, po administered for 5 days starting at 100 days post infection and measured after 2 days post treatment; format: organism-based; conditions: in vivo, 120 h, time 5 day
[13] = Toxicity in BALB/c mouse infected with Trypanosomal Trypanosoma cruzi MHOM/Pe/2011/Arequipa(DTU V) assessed as reduction in survival at 20 mg/kg, po administered for 5 days starting at 9 days post infection and measured up to 145 days post infection; format: organism-based; conditions: in vivo, 120 h, time 5 day
Trypanosoma cruzi [14] = experiment: Antitrypanosomal activity against Trypanosoma cruzi MHOM/Pe/2011/Arequipa(DTU V) amastigote form infected in BALB/c mouse assessed as reactivation parasitaemia at 20 mg/kg, po administered for 5 days starting at 100 days post infection and measured up to 145 days post infection relative to control; format: functional; conditions: time 5 day
Trypanosoma cruzi [15] = experiment: (§1) Antitrypanosomal activity against Trypanosoma cruzi MHOM/Pe/2011/Arequipa(DTU V) amastigote form infected in BALB/c mouse assessed as parasite free organ tissue ratio at 20 mg/kg, po administered for 5 days starting at 100 days post infection and measured up to 145 days post infection by PCR analysis relative to control; format: functional; conditions: time 5 day
Trypanosoma cruzi [16] = experiment: as §1, with “9” for “100”; format: functional; conditions: time 5 day
[17] = Toxicity in BALB/c mouse infected with Trypanosomal Trypanosoma cruzi MHOM/Pe/2011/Arequipa(DTU V) assessed as effect on ALP level at 20 mg/kg, po administered for 5 days starting at 100 days post infection and measured after 2 days post treatment; format: organism-based; conditions: in vivo, 120 h, time 5 day
[18] = Toxicity in BALB/c mouse infected with Trypanosomal Trypanosoma cruzi MHOM/Pe/2011/Arequipa(DTU V) assessed as effect on ALP level at 20 mg/kg, po administered for 5 days starting at 9 days post infection and measured after 2 days post treatment; format: organism-based; conditions: in vivo, 120 h, time 5 day
[19] = Toxicity in BALB/c mouse infected with Trypanosomal Trypanosoma cruzi MHOM/Pe/2011/Arequipa(DTU V) assessed as effect on uric acid level at 20 mg/kg, po administered for 5 days starting at 100 days post infection and measured after 2 days post treatment; format: organism-based; conditions: in vivo, 120 h, time 5 day
Trypanosoma cruzi [20] = experiment: Antitrypanosomal activity against Trypanosoma cruzi MHOM/Pe/2011/Arequipa(DTU V) amastigote form infected in Vero cells assessed as parasite growth inhibition at 50 uM incubated for 72 hrs by Giemsa-staining based assay relative to control; format: functional
Trypanosoma cruzi [21] = experiment: Antitrypanosomal activity against Trypanosoma cruzi MHOM/Pe/2011/Arequipa(DTU V) amastigote form infected in BALB/c mouse assessed as reduction in parasitaemia at 20 mg/kg, po for 5 days and measured after 55 days post infection; format: functional, organism-based; conditions: time 5.0 day
Trypanosoma cruzi [22] = experiment: Inhibition of nucleic acid level in Trypanosoma cruzi MHOM/Pe/2011/Arequipa(DTU V) epimastigote form at IC25 concentration after 72 hrs by Rho (FITC-A) staining based flow cytometric analysis; format: functional
[23] = Toxicity in BALB/c mouse infected with Trypanosomal Trypanosoma cruzi MHOM/Pe/2011/Arequipa(DTU V) assessed as reduction in weight at 20 mg/kg, po administered for 5 days starting at 9 days post infection and measured up to 145 days post infection; format: organism-based; conditions: in vivo, 120 h, time 5 day
[24] = Toxicity in BALB/c mouse infected with Trypanosomal Trypanosoma cruzi MHOM/Pe/2011/Arequipa(DTU V) assessed as reduction in weight at 20 mg/kg, po administered for 5 days starting at 100 days post infection and measured up to 145 days post infection; format: organism-based; conditions: in vivo, 120 h, time 5 day
Trypanosoma cruzi [25] = experiment: Antitrypanosomal activity against Trypanosoma cruzi MHOM/Pe/2011/Arequipa(DTU V) amastigote form infected in BALB/c mouse assessed as reactivation parasitaemia at 20 mg/kg, po administered for 5 days starting at 9 days post infection and measured up to 145 days post infection relative to control; format: functional; conditions: time 5 day
Trypanosoma cruzi [26] = experiment: Inhibition of mitochondrial membrane potential in Trypanosoma cruzi MHOM/Pe/2011/Arequipa(DTU V) epimastigote form at IC25 concentration after 72 hrs by Rho (FITC-A) staining based flow cytometric analysis; format: functional
[27] = Toxicity in BALB/c mouse infected with Trypanosomal Trypanosoma cruzi MHOM/Pe/2011/Arequipa(DTU V) assessed as effect on CK-MB level at 20 mg/kg, po administered for 5 days starting at 100 days post infection and measured after 2 days post treatment; format: organism-based; conditions: in vivo, 120 h, time 5 day
[28] = Toxicity in BALB/c mouse infected with Trypanosomal Trypanosoma cruzi MHOM/Pe/2011/Arequipa(DTU V) assessed as effect on total bilirubin level at 20 mg/kg, po administered for 5 days starting at 9 days post infection and measured after 2 days post treatment; format: organism-based; conditions: in vivo, 120 h, time 5 day
Trypanosoma cruzi [29] = experiment: Antitrypanosomal activity against Trypanosoma cruzi IRHOD/CO/2008/SN3 (DTU I) epimastigote form assessed as parasite growth inhibition incubated for 48 hrs by resazurin dye based assay; format: functional, organism-based
Trypanosoma cruzi [30] = experiment: Antitrypanosomal activity against Trypanosoma cruzi TINF/CH/1956/Tulahuen (DTU VI) epimastigote form assessed as parasite growth inhibition incubated for 48 hrs by resazurin dye based assay; format: functional, organism-based
Trypanosoma cruzi [31] = experiment: Antitrypanosomal activity against Trypanosoma cruzi MHOM/Pe/2011/Arequipa(DTU V) epimastigote form assessed as parasite growth inhibition incubated for 48 hrs by resazurin dye based assay; format: functional, organism-based

Structure (SMILES): O=C(Cn1ccnc1[N+](=O)[O-])NCc1ccccc1 [BENZNIDAZOLE]
Activity [1]: Non-Toxic
Activity [2]: Non-Toxic
Activity [3]: Non-Toxic
Activity [4]: Non-Toxic
IC50 (Vero): 80.4 µM
Activity [5]: Non-Toxic
Activity [6]: Non-Toxic
Activity [7]: Non-Toxic
Activity [8]: Non-Toxic
Activity [9]: Non-Toxic
Activity [10]: Non-Toxic
Activity [11]: Non-Toxic
Activity [12]: Non-Toxic
Activity [13]: Non-Toxic
Activity (Trypanosoma cruzi [14]): 68.3%
Activity (Trypanosoma cruzi [15]): 42.9%
Activity (Trypanosoma cruzi [16]): 28.5%
Activity [17]: Non-Toxic
Activity [18]: Non-Toxic
Activity [19]: Non-Toxic
inhibition at 50 µM (Trypanosoma cruzi [20]): 100%
Activity (Trypanosoma cruzi [21]): Active
inhibition (Trypanosoma cruzi [22]): 22.4%
Activity [23]: Non-Toxic
Activity [24]: Non-Toxic
Activity (Trypanosoma cruzi [25]): 81.5%
inhibition (Trypanosoma cruzi [26]): 35.4%
Activity [27]: Non-Toxic
Activity [28]: Non-Toxic

Structure (SMILES): CC(C)c1cc2c(cc1O)[C@@]1(C)CCC[C@@]3(C)CO[C@@H]([C@@H]2O)[C@@H]31
IC50 (Vero): 763 µM
IC50 (Trypanosoma cruzi [29]): 36.7 µM
IC50 (Trypanosoma cruzi [30]): 34.6 µM
IC50 (Trypanosoma cruzi [31]): 31.1 µM

Structure (SMILES): CC(C)c1cc2c(cc1O)[C@@]1(C)CCCC(C)(C)[C@@]1(O)OC2=O
IC50 (Vero): 480 µM
IC50 (Trypanosoma cruzi [29]): 91.2 µM
IC50 (Trypanosoma cruzi [30]): 72.8 µM
IC50 (Trypanosoma cruzi [31]): 40.5 µM

IC50 (Trypanosoma cruzi [29]): 110 µM
IC50 (Trypanosoma cruzi [30]): 95.3 µM
IC50 (Trypanosoma cruzi [31]): 75.9 µM
Structure (SMILES): CC(C)C1=CC2=C[C@@H]3OC(=O)[C@]4(C)CCC=C(C2=C(O)C1=O)[C@]34C
IC50 (Vero): 222 µM

Structure (SMILES): COC(=O)[C@]1(C)CCC[C@]2(C)c3ccc(C(C)C)c(O)c3CC[C@@H]12
IC50 (Vero): 102 µM
IC50 (Trypanosoma cruzi [29]): 103 µM
IC50 (Trypanosoma cruzi [30]): 71.2 µM
IC50 (Trypanosoma cruzi [31]): 75 µM

IC50 (Trypanosoma cruzi [29]): 13.5 µM
IC50 (Trypanosoma cruzi [30]): 19.2 µM
IC50 (Trypanosoma cruzi [31]): 19 µM
Structure (SMILES): CC(C)C1=CC(=O)C2=C(C=C[C@H]3C(C)(C)CCC[C@]23C)C1=O
IC50 (Vero): 26.1 µM

Structure (SMILES): CC(C)c1cc2c(cc1O)[C@@]1(C)CCC[C@@](C)(C=O)[C@@H]1CC2 [18-OXOFERRUGINOL]
IC50 (Vero): 106 µM
IC50 (Trypanosoma cruzi [29]): 63 µM
IC50 (Trypanosoma cruzi [30]): 48.7 µM
IC50 (Trypanosoma cruzi [31]): 59.5 µM

Structure (SMILES): CC(C)c1cc2c(cc1O)[C@@]1(C)CCC[C@@]3(C)CO[C@@H](C2=O)[C@@H]31
IC50 (Vero): 952 µM
IC50 (Trypanosoma cruzi [29]): 60.8 µM
IC50 (Trypanosoma cruzi [30]): 62.8 µM
IC50 (Trypanosoma cruzi [31]): 51 µM

Source: ChEMBL document CHEMBL4673334, “In Vivo Biological Evaluation of a Synthetic Royleanone Derivative as a Promising Fast-Acting Trypanocidal Agent by Inducing Mitochondrial-Dependent Necrosis” (J Nat Prod, 2020)
